According to paper PMC5735092 (Scientific Reports, 2017):

Experiments:
[1] = tested on: C-GFP nuclear accumulation in HeLa cells; type: cell-based
[2] = tested on: IMPα/β1 binding to HIV-1 integrase; settings: cited from earlier work
VEEV = settings: cited from earlier work
[3] = tested on: GFP-T-ag nuclear accumulation in HeLa cells; type: cell-based
TC83-WT = type: cell-based, Venezuelan equine encephalitis virus
HIV-1 = settings: cited from earlier work
IMPα/β1:C = IMPα/β1:C (Mus musculus, UniProt P52293); type: binding
[4] = tested on: VEEV C localization in infected Vero cells; type: cell-based
VEEV-TC83luc = type: cell-based, Venezuelan equine encephalitis virus
[5] = tested on: C-GFP nuclear import in HeLa cells; type: cell-based

Ivermectin
nuclear accumulation of C-GFP [1]: reduced nuclear accumulation of both constructs
inhibition of IMPα/β1 binding to HIV-1 integrase [2]: inhibitors of IMPα/β1 binding to HIV-1 integrase
activity against VEEV (VEEV): active against VEEV
nuclear accumulation of GFP-T-ag [3]: reduced nuclear accumulation of both constructs
titer of wild-type TC83 (TC83-WT): reduced the titer to a lesser extent
anti-HIV-1 activity (HIV-1): anti-HIV-1 activity

O=C(c1cc(C(=O)N2CCN(c3cccc(Cl)c3)CC2)cc(C(=O)N2CCN(c3cccc(Cl)c3)CC2)c1)N1CCN(c2cccc(Cl)c2)CC1 [AK-968/15362127]
IC50 (IMPα/β1:C): 32 ± 4.6 µM

CC#C[C@]1(O)CC[C@H]2[C@@H]3CCC4=CC(=O)CCC4=C3[C@@H](c3ccc(N(C)C)cc3)C[C@@]21C [Mifepristone]
inhibition of IMPα/β1 binding to HIV-1 integrase [2]: inhibitors of IMPα/β1 binding to HIV-1 integrase
activity against VEEV (VEEV): active against VEEV
nuclear C staining in infected cells [4]: reduced nuclear C staining
titer of wild-type TC83 (TC83-WT): significantly reduced the titer
anti-HIV-1 activity (HIV-1): anti-HIV-1 activity

CC(=O)Nc1ccc(S(=O)(=O)Nc2ccc(C3(c4ccc(NS(=O)(=O)c5ccc(NC(C)=O)cc5)cc4)c4ccccc4-c4ccccc43)cc2)cc1 [AN-329/40863801]
nuclear accumulation of C-GFP [1]: no significant effect
EC50 (VEEV-TC83luc): > 50 µM
nuclear accumulation of GFP-T-ag [3]: no significant effect
CC50 (Vero cells): > 100 µM
initial rate of C nuclear import [5]: significantly reduced
maximal recovery of nuclear fluorescence (Fn(rec) max), lower than in DMSO alone treated cells [5]: ~30%
